One experiment deals with T1, ATX in human plasma (Homo sapiens, UniProt Q13822).
T1 construct: blank plasma was derived from at least 6 individual people; from tissue; host or cells: human plasma (pooled from at least 6 individuals)
The experiment in a line: Analysis in vitro: detection of LPA in human plasma for screening activity (LPA 18:2 by LC/MS/MS). Particulars: incubated 2 hours at 37° C., LPA 18:2 detected by LC/MS/MS. The class given is biochemical. From the text:
Analysis In Vitro: Detection of LPA in Human Plasma for Screening Activity
Principle: LPC in plasma being used as a substrate, the produced LPA 18:2 (LPA 17:0 as an internal standard) is detected by LC/MS/MS quantitative analysis. At different concentrations of the compounds to be tested, the percentage of residual activity is obtained by the ratio of the production of LPA18:2 to that in the absence of the compounds to be tested, thereby calculating IC50 values.
Experiment procedures: blank plasma was derived from at least 6 individual people. The compounds to be tested were diluted from stock solution in 3-fold dilution gradient, to produce 8 concentrations of working solution (with zero) in series. 10 μL of the melting blank plasma samples were taken and iced methanol solution containing internal standard (LPA 17:0) was added to it, so that the mixture directedly performed protein precipitation, which served as a system control sample. 2 μL of the working solution in different concentration was taken and 198 μL of blank human plasma was added, which was incubated with a concentration of 0 to 10 μM. The samples were placed at an incubater containing 5% CO2 at 37° C., and incubated for 2 hours. When the incubation was completed, 10 μL of plasma sample was taken and appropriate volume of iced methanol solution containing internal standard (LPA 17:0) was added into it, so that the mixture directedly performed protein precipitation. The precipitation was centrifuged to take supernatant. LPA 18:2 was detected by LC/MS/MS and IC50 values were analyzed and calculated by software, seeing Table 2.

The target in the next experiment is ATX (Homo sapiens, UniProt Q13822). The experiment in a line: Analysis in vitro: LPC was used as substrate for screening enzyme activity (Amplex Red fluorescence). The class given is biochemical. The note with it: inhibitory activity against ATX, with LPC as substrate. An excerpt:
Analysis In Vitro: LPC was Used as Substrate for Screening Enzyme Activity
Principle: Lysophosphatidylcholine (LPC) as substrate is hydrolyzed by using the activity of lysoPLD enzyme, to produce lysophosphatidic acid (LPA) and choline, which is oxidized to produce H2O2 under the action of choline oxidase. In presence of horse radish peroxidase (HPR), Amplex Red reagent is reacted with H2O2 in a quantitative chemistry ratio of 1 to 1, to produce strong fluorescence products, which are detected by a fluorescent quantitative test.
Experimental procedures: the compounds to be tested were dissolved in DMSO, to prepare 10 mM of stock solution, which was diluted in a gradient concentration of 3 times with DMSO from 10 mM, to generate 10 concentration gradients. The reaction buffer solution was used for preparing a mixed solution 1 of 2 ng/μl ATX, 2 U/ml HRP and 0.2 U/ml choline oxidase in a final concentration. 20 μl of the above mixed solution 1 was added to each hole of an experiment board, […]. The compounds diluted with DMSO were transferred into an experiment board with Echo550. The reaction buffer solution was used for preparing a mixed solution 2 of […] LPC and 400 μM Amplex Red in a final concentration. 20 μl of the above mixed solution 2 was added to each hole of the experiment board. After addition, the experiment board was shook for 30 seconds on a shaker, and incubated for 30 minutes. Envision was used to read the fluorescence signals with an exciting light at 530 nm and emitted light at 590 nm. Inhibition ratio of the compounds to enzyme reaction was calculated according to the ratio of fluorescence, and IC50 of the compounds was analyzed and calculated by software, seeing Table 1.

Molecule `CCc1nc2sc(N3C[C@H](C)N(CC(=O)N4CC(O)C4)[C@@H](C)C3)nn2c1N(C)c1nc(-c2ccc(F)cc2)c(C#N)s1` (relative stereo) [Example 73, trans-2-{[6-ethyl-2-(4-(2-(3-hydroxyazetidin-1-yl)-2-oxoethyl)-3,5-dimethylpiperazin-1-yl)imidazo[2,1-b][1,3,4]thiadiazol-5-yl](methyl)amino}-4-(4-fluorophenyl)thiazole-5-carbonitrile] returned an IC50 on ATX in human plasma of 100 to 500 nM.
Molecule `CCc1nc2sc(N3C[C@H](C)N(CC(=O)N4CC(O)C4)C[C@H]3C)nn2c1N(C)c1nc(-c2ccc(F)cc2)c(C#N)s1` (relative stereo) [Example 76, trans-2-{[6-ethyl-2-(4-(2-(3-hydroxyazetidin-1-yl)-2-oxoethyl)-2,5-dimethylpiperazin-1-yl)imidazo[2,1-b][1,3,4]thiadiazol-5-yl](methyl)amino}-4-(4-fluorophenyl)thiazole-5-carbonitrile] displayed an IC50 at ATX in human plasma of 0.01 to 100 nM.
Same read-out and setting: as for `CCc1nc2sc(N3CCN(C(N)=O)CC3)nn2c1N(C)c1nc(-c2ccc(F)cc2)c(C#N)s1` [Example 7, 4-{5-[(5-cyano-4-(4-fluorophenyl)thiazol-2-yl)(methyl)amino]-6-ethylimidazo[2,1-b][1,3,4]thiadiazol-2-yl}piperazine-1-carboxamide], the figure is 500 to 1000 nM; as for `CCc1nc2sc(N3CC4(CN(C(N)=O)C4)C3)nn2c1N(C)c1nc(-c2ccc(F)cc2)c(C#N)s1` [Example 9, 6-{5-[(5-cyano-4-(4-fluorophenyl)thiazol-2-yl)(methyl)amino]-6-ethylimidazo[2,1-b][1,3,4]thiadiazol-2-yl}-2,6-diazaspiro[3.3]heptane-2-carboxamide], 500 to 1000 nM.
Still for that read-out and setting: as for `CCOC(=O)CN(C)C1CCN(c2nn3c(N(C)c4nc(-c5ccc(F)cc5)c(C#N)s4)c(CC)nc3s2)C1` (centres unmarked) [Example 48], the figure is 100 to 500 nM; as for `CCc1nc2sc(N3CCC(N(C)CC(=O)O)C3)nn2c1N(C)c1nc(-c2ccc(F)cc2)c(C#N)s1` (centres unmarked) [Example 49, 2-{[1-(5-((5-cyano-4-(4-fluorophenyl)thiazol-2-yl)(methyl)amino)-6-ethylimidazo[2,1-b][1,3,4]thiadiazol-2-yl)pyrrolidin-3-yl](methyl)amino}acetic acid], 500 to 1000 nM; as for `CCc1nc2sc(N3CCC(N(C)CC(=O)NCC(=O)OC)C3)nn2c1N(C)c1nc(-c2ccc(F)cc2)c(C#N)s1` (centres unmarked) [Example 50], 100 to 500 nM.
Same read-out and setting: the figure for `CCc1nc2sc(N3CCC(N(C)CC(=O)NCC(=O)O)C3)nn2c1N(C)c1nc(-c2ccc(F)cc2)c(C#N)s1` (centres unmarked) [Example 51] is 100 to 500 nM.
In the case of `CCc1nc2sc(N3CC4(CCN(CC(=O)N5CC(O)C5)C4)C3)nn2c1N(C)c1nc(-c2ccc(F)cc2)c(C#N)s1` [Example 52, 2-{[6-ethyl-2-(6-(2-(3-hydroxyazetidin-1-yl)-2-oxoethyl)-2,6-diazaspiro[3.4]octan-2-yl)imidazo[2,1-b][1,3,4]thiadiazol-5-yl](methyl)amino}-4-(4-fluorophenyl)thiazole-5-carbonitrile], the IC50 at ATX in human plasma fell in the range of 100 to 500 nM.
`CCc1nc2sc(N3CCN(CC(=O)N4CC(O)C4)[C@H](C(=O)OC)C3)nn2c1N(C)c1nc(-c2ccc(F)cc2)c(C#N)s1` [Example 81, methyl (S)-4-{5-[(5-cyano-4-(4-fluorophenyl)thiazol-2-yl)(methyl)amino]-6-ethylimidazo[2,1-b][1,3,4]thiadiazol-2-yl}-1-(2-(3-hydroxyazetidin-1-yl)-2-oxoethyl)piperazine-2-carboxylate] returned an IC50 on ATX of 0.01 to 100 nM.
On to `CCc1nc2sc(N3CCN(CC(=O)N4CC(O)C4)[C@H](CO)C3)nn2c1N(C)c1nc(-c2ccc(F)cc2)c(C#N)s1` [Example 82, (S)-2-{[6-ethyl-2-(4-(2-(3-hydroxyazetidin-1-yl)-2-oxoethyl)-3-(hydroxymethyl)piperazin-1-yl)imidazo[2,1-b][1,3,4]thiadiazol-5-yl](methyl)amino}-4-(4-fluorophenyl)thiazole-5-carbonitrile], for which the IC50 against ATX was 100 to 500 nM.
Consider `CCc1nc2sc(N3CCN(CC(=O)N4CC(O)C4)[C@H](C(=O)NC)C3)nn2c1N(C)c1nc(-c2ccc(F)cc2)c(C#N)s1` [Example 83, (S)-4-{5-[(5-cyano-4-(4-fluorophenyl)thiazol-2-yl)(methyl)amino]-6-ethylimidazo[2,1-b][1,3,4]thiadiazol-2-yl}-1-(2-(3-hydroxyazetidin-1-yl)-2-oxoethyl)-N-methylpiperazine-2-carboxamide], for which the IC50 against ATX was in the range of 500 to 1000 nM.
The same measure, in the same setting: as for `CCc1nc2sc(N3CCN(CC(=O)N4CC(O)C4)[C@@H](C(=O)OC)C3)nn2c1N(C)c1nc(-c2ccc(F)cc2)c(C#N)s1` [Example 84, methyl (R)-4-{5-[(5-cyano-4-(4-fluorophenyl)thiazol-2-yl)(methyl)amino]-6-ethylimidazo[2,1-b][1,3,4]thiadiazol-2-yl}-1-(2-(3-hydroxyazetidin-1-yl)-2-oxoethyl)piperazine-2-carboxylate], the figure is 100 to 500 nM; as for `CCc1nc2sc(N3CCN(CC(=O)N4CC(O)C4)[C@@H](CO)C3)nn2c1N(C)c1nc(-c2ccc(F)cc2)c(C#N)s1` [Example 85, (R)-2-{[6-ethyl-2-(4-(2-(3-hydroxyazetidin-1-yl)-2-oxoethyl)-3-(hydroxymethyl)piperazin-1-yl)imidazo[2,1-b][1,3,4]thiadiazol-5-yl](methyl)amino}-4-(4-fluorophenyl)thiazole-5-carbonitrile], 500 to 1000 nM.
For the molecule `CN(c1nc(-c2ccc(F)cc2)c(C#N)s1)c1c(CCOCc2ccccc2)nc2sc(N3CC[C@@H](N(C)CC(=O)N4CC(O)C4)C3)nn12` [Example 86], the IC50 against ATX was at least 1000 nM.
`CN(c1nc(-c2ccc(F)cc2)c(C#N)s1)c1c(CCO)nc2sc(N3CC[C@@H](N(C)CC(=O)N4CC(O)C4)C3)nn12` [Example 87, (R)-4-(4-fluorophenyl)-2-{[2-(3-((2-(3-hydroxyazetidin-1-yl)-2-oxoethyl)(methyl)amino)pyrrolidin-1-yl)-6-(2-hydroxyethyl)imidazo[2,1-b][1,3,4]thiadiazol-5-yl](methyl)amino}thiazole-5-carbonitrile] registered an IC50 at ATX of 500 to 1000 nM.
`COCCc1nc2sc(N3CC[C@@H](N(C)CC(=O)N4CC(O)C4)C3)nn2c1N(C)c1nc(-c2ccc(F)cc2)c(C#N)s1` [Example 88, (R)-4-(4-fluorophenyl)-2-{[2-(3-((2-(3-hydroxyazetidin-1-yl)-2-oxoethyl)(methyl)amino)pyrrolidin-1-yl)-6-(2-methoxyethyl)imidazo[2,1-b][1,3,4]thiadiazol-5-yl](methyl)amino}thiazole-5-carbonitrile] yielded an IC50 against ATX of 100 to 500 nM.
`CCc1nc2sc(N3CC[C@@H](N(CC)CC(=O)N4CC(O)C4)C3)nn2c1N(C)c1nc(-c2ccc(F)cc2)c(C#N)s1` [Example 89, (R)-2-{[6-ethyl-2-(3-(ethyl(2-(3-hydroxyazetidin-1-yl)-2-oxoethyl)amino)pyrrolidin-1-yl)imidazo[2,1-b][1,3,4]thiadiazol-5-yl](methyl)amino}-4-(4-fluorophenyl)thiazole-5-carbonitrile] showed an IC50 at ATX of 100 to 500 nM.
`CCc1nc2sc(N3CC[C@@H](N(CC(=O)N4CC(O)C4)CC4CC4)C3)nn2c1N(C)c1nc(-c2ccc(F)cc2)c(C#N)s1` [Example 90] came in with an IC50 at ATX of at least 1000 nM.
The molecule `CCc1nc2sc(N3CC[C@@H](N(C=O)CC(=O)N4CC(O)C4)C3)nn2c1N(C)c1nc(-c2ccc(F)cc2)c(C#N)s1` [Example 91, (R)—N-{1-[5-((5-cyano-4-(4-fluorophenyl)thiazol-2-yl)(methyl)amino)-6-ethylimidazo[2,1-b][1,3,4]thiadiazol-2-yl]pyrrolidin-3-yl}-N-(2-(3-hydroxyazetidin-1-yl)-2-oxoethyl)formamide] registered an IC50 against ATX of 0.01 to 100 nM.

The values above are taken from patent publication US11679108B2, “Aromatic heterocyclic compound, and pharmaceutical composition and use thereof” (GUANGZHOU HENOVCOM BIOSCIENCE CO., LTD., priority 2018, dated 2023).
